# Patent publication US20180161400A1 (Emisphere Technologies, Inc., priority 2004, published 2018)
# “And” between values parts separate entries of the source, which are not always exact repeats. Equal values may be shown once. Where a name gives a salt, the structure may show the parent alone.
# Columns and labels:
# [1] = cited from earlier work
# [2] = tested on: people with Type 2 diabetes; details: cited from earlier work
# [3] = cited from earlier work; remark: listed apart in the source
# Type 2 diabetics = details: cited from earlier work
# Sprague Dawley rats = assay: Single oral gavage of insulin/4-CNAB/metformin solutions to fasted rats, blood glucose by hand-held glucometer; type: in vivo; details: for Percent Change in Glucose (from baseline), Mean / Blood Glucose, Mean: group mean n=5; for Percent Change in Glucose Compared to Carrier Alone, Mean: group mean; for Percent Change in Glucose Compared to Carrier Alone: individual rat vs vehicle group mean; for Percent Change in Glucose (from baseline) / Blood Glucose: individual rat
# Experimental: These solutions were sonicated at 35° C. and the pH adjusted to 6.5-8.5 with sodium hydroxide.
# Sprague Dawley rats were fasted overnight (16-24 h) and were divided into five groups for oral dosing (n=5 per group). Each rat received a single oral dose (by gavage) of dosing solution at a final dose volume of 1 mL/kg. […] The study also included a control group that received an oral dose of vehicle (water) alone. Blood samples were collected by the tail clip method at 0, 15, 30, 45, 60, 120, 180, 240 and 300 minutes and blood glucose was measured immediately using a hand-held glucometer.
# [4] = cited from earlier work; remark: listed apart in the source
# [5] = tested on: patients with impaired glucose tolerance; details: compared with placebo, over 2.8 years; cited from earlier work
# [6] = in vivo; cited from earlier work
# [7] = 15 min, listed as Metformin (450)
# [8] = 30 min, listed as Metformin (450)
# [9] = 45 min, listed as Metformin (450)
# [10] = 60 min, listed as Metformin (450)
# [11] = 120 min, listed as Metformin (450)
# [12] = 180 min, listed as Metformin (450)
# [13] = 240 min, listed as Metformin (450)
# [14] = 300 min, listed as Metformin (450)
compound,measurement,setting,value
CN(C)C(=N)N=C(N)N [Metformin hydrochloride],pH of a 1% aqueous solution,[1],6.68
CCCNC(=O)NS(=O)(=O)c1ccc(Cl)cc1 [chlorpropamide],average weight gain,[2]; UKPDS intensive therapy,2.6 kg
"CN(C)C(=N)N=C(N)N [Metformin, 1,1-Dimethylbiguanidine]",times less likely to cause lactic acidosis,[3]; compared with phenformin,20 times
same,"Lactic acidosis occurrence, once in every ... of use",[3]; in vivo,"30,000 person-years"
same,mortality rate of lactic acidosis,[3]; in vivo,about 40%
same,reduction of raised plasma insulin levels,Type 2 diabetics; cases of metabolic syndrome,≤ 30%
same,"lowering of A1c, average","Type 2 diabetics; human, in vivo",1.5%
same,"lowering of fasting blood glucose levels, average","Type 2 diabetics; human, in vivo",25%
same,lowering of postprandial blood glucose,"Type 2 diabetics; human, in vivo",up to 44.5%
same,decrease in heart attacks,"[2]; 10 year UKPDS, Type 2 diabetes",39%
same,decrease in overall mortality,"[2]; 10 year UKPDS, Type 2 diabetes",36%
same,time of maximum decline in blood glucose,Sprague Dawley rats; after oral administration,about 45 minutes
same,"Percent Change in Glucose (from baseline), Mean",Sprague Dawley rats; 0 min,0.000%
same,"Blood Glucose, Mean","Sprague Dawley rats; 0 min (pre-dose baseline), label doses mg/kg oral",99.000 mg/dL
same,"Percent Change in Glucose (from baseline), Mean",Sprague Dawley rats; 15 min,2.053%
same,"Blood Glucose, Mean",Sprague Dawley rats; 15 min after single oral dose,101.200 mg/dL
same,"Percent Change in Glucose (from baseline), Mean",Sprague Dawley rats; 30 min,−3.264%
same,"Blood Glucose, Mean",Sprague Dawley rats; 30 min after single oral dose,95.600 mg/dL
same,"Percent Change in Glucose (from baseline), Mean",Sprague Dawley rats; 45 min,−13.716%
same,"Blood Glucose, Mean",Sprague Dawley rats; 45 min after single oral dose,85.200 mg/dL
same,"Percent Change in Glucose (from baseline), Mean",Sprague Dawley rats; 60 min,−17.653%
same,"Blood Glucose, Mean",Sprague Dawley rats; 60 min after single oral dose,81.200 mg/dL
same,"Percent Change in Glucose (from baseline), Mean",Sprague Dawley rats; 120 min,−35.050%
same,"Blood Glucose, Mean",Sprague Dawley rats; 120 min after single oral dose,63.800 mg/dL
same,"Percent Change in Glucose (from baseline), Mean",Sprague Dawley rats; 180 min,−38.670%
same,"Blood Glucose, Mean",Sprague Dawley rats; 180 min after single oral dose,60.400 mg/dL
same,"Percent Change in Glucose (from baseline), Mean",Sprague Dawley rats; 240 min,−40.832%
same,"Blood Glucose, Mean",Sprague Dawley rats; 240 min after single oral dose,58.200 mg/dL
same,"Percent Change in Glucose (from baseline), Mean",Sprague Dawley rats; 300 min,−37.001%
same,"Blood Glucose, Mean",Sprague Dawley rats; 300 min after single oral dose,62.400 mg/dL
same,maximum decline in blood glucose from baseline,Sprague Dawley rats; group mean percent change at the peak time stated in the text,−40.832%
same,"Percent Change in Glucose Compared to Carrier Alone, Mean",Sprague Dawley rats; 0 min,18.990%
same,"Percent Change in Glucose Compared to Carrier Alone, Mean",Sprague Dawley rats; 15 min,4.521%
same,"Percent Change in Glucose Compared to Carrier Alone, Mean",Sprague Dawley rats; 30 min,7.223%
same,"Percent Change in Glucose Compared to Carrier Alone, Mean",Sprague Dawley rats; 45 min,−0.770%
same,"Percent Change in Glucose Compared to Carrier Alone, Mean",Sprague Dawley rats; 60 min,1.563%
same,"Percent Change in Glucose Compared to Carrier Alone, Mean",Sprague Dawley rats; 120 min,−4.797%
same,"Percent Change in Glucose Compared to Carrier Alone, Mean",Sprague Dawley rats; 180 min,−9.824%
same,"Percent Change in Glucose Compared to Carrier Alone, Mean",Sprague Dawley rats; 240 min,−12.757%
same,"Percent Change in Glucose Compared to Carrier Alone, Mean",Sprague Dawley rats; 300 min,−2.733%
same,Percent Change in Glucose Compared to Carrier Alone,"Sprague Dawley rats; 0 min, listed as Metformin (450)",29.808% and 5.769% and 12.981% and 17.788% and 28.606%
same,Percent Change in Glucose Compared to Carrier Alone,Sprague Dawley rats; [7],−8.511% and 2.128% and 6.383% and 16.085%
same,Percent Change in Glucose Compared to Carrier Alone,Sprague Dawley rats; [8],−4.063% and 8.352% (2×) and 16.253%
same,Percent Change in Glucose Compared to Carrier Alone,Sprague Dawley rats; [9],−8.768% and 5.450% and −2.844% and 3.081%
same,Percent Change in Glucose Compared to Carrier Alone,Sprague Dawley rats; [10],−7.500% and 5.000% (2×) and 3.750%
same,Percent Change in Glucose Compared to Carrier Alone,Sprague Dawley rats; [11],−6.977% and 4.651% and −17.151% and 0.291%
same,Percent Change in Glucose Compared to Carrier Alone,Sprague Dawley rats; [12],−22.287% and −0.293% and −7.625% and −9.091%
same,Percent Change in Glucose Compared to Carrier Alone,Sprague Dawley rats; [13],−17.889% and −4.692% and −20.821% and −7.625%
same,Percent Change in Glucose Compared to Carrier Alone,Sprague Dawley rats; [14],−6.752% and 9.325% and −34.084% and 20.579%
same,Percent Change in Glucose (from baseline),Sprague Dawley rats; 0 min,0.000%
same,Blood Glucose,"Sprague Dawley rats; 0 min (pre-dose baseline), label doses mg/kg oral, listed as Metformin (450)",108 mg/dL and 88 mg/dL and 94 mg/dL and 98 mg/dL and 107 mg/dL
same,Percent Change in Glucose (from baseline),Sprague Dawley rats; [7],4.630% and −2.273% and 2.128% and 2.041% and 3.738%
same,Blood Glucose,"Sprague Dawley rats; 15 min after single oral dose, label doses mg/kg, listed as Metformin (450)",113 mg/dL and 86 mg/dL and 96 mg/dL and 100 mg/dL and 111 mg/dL
same,Percent Change in Glucose (from baseline),Sprague Dawley rats; [8],−9.259% and −3.409% and 2.128% and −2.041% and −3.738%
same,Blood Glucose,"Sprague Dawley rats; 30 min after single oral dose, label doses mg/kg, listed as Metformin (450)",98 mg/dL and 85 mg/dL and 96 mg/dL (2×) and 103 mg/dL
same,Percent Change in Glucose (from baseline),Sprague Dawley rats; [9],−15.741% and −12.500% and −5.319% and −16.327% and −18.692%
same,Blood Glucose,"Sprague Dawley rats; 45 min after single oral dose, label doses mg/kg, listed as Metformin (450)",91 mg/dL and 77 mg/dL and 89 mg/dL and 82 mg/dL and 87 mg/dL
same,Percent Change in Glucose (from baseline),Sprague Dawley rats; [10],−25.000% and −15.909% and −10.638% and −14.286% and −22.430%
same,Blood Glucose,"Sprague Dawley rats; 60 min after single oral dose, label doses mg/kg, listed as Metformin (450)",81 mg/dL and 74 mg/dL and 84 mg/dL (2×) and 83 mg/dL
same,Percent Change in Glucose (from baseline),Sprague Dawley rats; [11],−47.222% and −27.273% and −23.404% and −41.837% and −35.514%
same,Blood Glucose,"Sprague Dawley rats; 120 min after single oral dose, label doses mg/kg, listed as Metformin (450)",57 mg/dL (2×) and 64 mg/dL and 72 mg/dL and 69 mg/dL
same,Percent Change in Glucose (from baseline),Sprague Dawley rats; [12],−48.148% and −39.773% and −27.660% and −35.714% and −42.056%
same,Blood Glucose,"Sprague Dawley rats; 180 min after single oral dose, label doses mg/kg, listed as Metformin (450)",56 mg/dL and 53 mg/dL and 68 mg/dL and 63 mg/dL and 62 mg/dL
same,Percent Change in Glucose (from baseline),Sprague Dawley rats; [13],−50.926% and −36.364% and −30.851% and −44.898% and −41.121%
same,Blood Glucose,"Sprague Dawley rats; 240 min after single oral dose, label doses mg/kg, listed as Metformin (450)",56 mg/dL (2×) and 65 mg/dL and 54 mg/dL and 63 mg/dL
same,Percent Change in Glucose (from baseline),Sprague Dawley rats; [14],−35.185% and −34.091% and −27.660% and −58.163% and −29.907%
same,Blood Glucose,"Sprague Dawley rats; 300 min after single oral dose, label doses mg/kg, listed as Metformin (450)",70 mg/dL and 58 mg/dL and 68 mg/dL and 41 mg/dL and 75 mg/dL
same,non-absorbed fraction recovered in feces,[4]; after an oral dose,20-30%
same,maximum metformin plasma levels (Cmax),"[4]; controlled clinical trials, even at maximum doses",≤ 4000 ng/mL
same,steady state plasma concentrations,[4]; usual doses and dosing schedules,less than 1 μg/mL
same,reduction of the incidence of type 2 diabetes,[5],31%
Glargine insulin: long-acting insulin,duration of activity,[6],24 h
same,peak effect,[6],no peak effect
